Literature values, collected in patent US20050070607A1, “N-acetylcysteine compositions and methods for the treatment and prevention of cysteine/glutathione deficiency in diseases and conditions” (priority 2003, published 2005).
Where two headings read alike, the source gives them in different places.

What was measured:
[1] = test system: subjects with acetaminophen-induced fulminant hepatic failure; settings: late presentation; survival, cerebral edema, hypotension; IV 150 mg/kg for 15 min; 50 mg/kg for 4 h; 100 mg/kg over 16 h; n 50; 21 days; Keays 1991[2]
[2] = test system: colonic crypt epithelium of human volunteers who previously had adenomatous polyps; settings: Colon cancer; proliferative index; 800 mg NAC daily po; n 64; 12 weeks; Estensen 1999[55]
[3] = test system: Stable angina and nitrate tolerance
[4] = test system: patients with polycystic ovary syndrome; settings: circulating insulin levels and insulin sensitivity; 1.8-3 g daily depending on weight; n 33; 6 weeks; Fulghesu 2002[20]
[5] = test system: influenza or influenza-like episodes; settings: frequency and severity of episodes, elderly and chronic non-respiratory disease; 1200 mg/day po; n 262; 6 months; De Flora 1997[46]
Alzheimer's Disease = settings: MMSE, ADL and other psychometric tests; 50 mg/kg/day; n 47; 24 weeks; Adair 2001[60]

For `CC(=O)N[C@@H](CS)C(=O)O` [NAC, N-acetylcysteine], the Treatment effect [1] is given as “Beneficial”, the Treatment effect [2] is given as “Beneficial” and the Beneficial effects ([3]; NAC + ISDN infusion, tolerance to antianginal effects, 2 g IV bolus, n 10, 30 hours, Boesgaard 1992[14]) is given as “Beneficial”. For the same compound, the Beneficial effects ([3]; NAC + isosorbide dinitrate (ISDN), ST segment depression, 2400 mg daily po, n 7, 8 days, Boesgaard 1991[13]) was “Beneficial”, the Beneficial effects ([3]; NAC + isosorbide-5-mononitrate, total exercise time, 4800 mg po, n 10, 24 hours, Svendsen 1989[12]) was “Beneficial” and the “apoptosis induction by cardioplegic arrest in left ventricular cardiac myocytes” value (Cardiac bypass; 100 mg/kg followed by infusion 20 mg/kg, n 36, Fischer 2004[270]) was “can effectively ne prevented by NAC”. The Beneficial effects (Cardiac bypass; oxidative burst response of peripheral neutrophils, 100 mg/kg bolus then 20 mg/kg continuous IV, n 12, 24 hours, Andersen 1995[16]) was “Beneficial”, the Beneficial effects [4] was “Beneficial” and the Beneficial effects (Bronchitis; General Health Questionnaire score, mild chronic bronchitis, 1200 mg/day po, n 153, 22 weeks, Hansen 1994[34]) was “Beneficial”. For the same compound, the Beneficial effects (Bronchitis; days incapacitated, 600 mg/day po, n 526, 6 months, Parr and Huitson 1987[31]) was “Beneficial”, the Beneficial effects (Bronchitis; difficulty in expectoration and cough severity, 600 mg/day po, n 155, 3 months, Jackson 1984[30]) was “Beneficial” and the Beneficial effects (Bronchitis; evening peak flows after NAC pre-treatment, 1200 mg/day po, n 37, 22 weeks, Evald 1989[33]) was “Beneficial”. For the same compound, the Beneficial effects (Bronchitis; exacerbation rate, 400 mg/day po, n 259, 6 months, Boman 1983[29]) was “Beneficial”, the Beneficial effects (Bronchitis; frequency of exacerbations, 600 mg/day, 3 days/wk, po, n 69, 6 months, Grassi and Morandini 1976[24]) was “Beneficial” and the Beneficial effects (Bronchitis; sick-leave days caused by exacerbations, 600 mg/day po, n 116, 6 months, Rasmussen and Glennow 1988[32]) was “Beneficial”. The Beneficial effects (Bronchitis; sputum consistency, expectoration, peak expiratory flow rate, 600 mg/day po, n 29, 4 weeks, Aylward 1980[25]) was “Beneficial”, the Beneficial effects (Bronchitis; sputum thickness, expectoration, exacerbations, 400 mg/day po, n 744, 6 months, Grassi 1980, Ferrari 1980[27,28]) was “Beneficial” and the Beneficial effects (Bronchitis; sputum volume and viscosity, acute and chronic bronchitis, 600 mg/day po, n 215, 10 days, Brocard 1980[26]) was “Beneficial”. The Beneficial effects (Smoking; formation of lipophilic-DNA adducts, 1200 mg/day po, n 41, 6 months, VanShooten 2002[35]) was “Beneficial”, the Beneficial effects (Smoking; mucus clearance, 600 mg/day, n 12, 30 days, Olivieri 1985[36]) was “Beneficial” and the Beneficial effects (acute lung injury; RBC GSH, days of acute lung injury, cardiac index, NAC 70 mg/kg q 8 hr IV, OTZ 63 mg/kg q 8 hr IV, n 48, 10 days, Bernard 1997[222]) was “Beneficial”. The Beneficial effects (acute lung injury; elastase activity, pretreatment 72 mg/kg bolus, 72 mg/kg over 12 hours IV, n 18, 12 hours, De Backer 1996[214]) was “Beneficial”, the Beneficial effects (acute lung injury; mild-to-moderate ALI, systemic oxygenation, need for ventilatory support, 40 mg/kg/day IV, n 61, 3 days, Suter 1994[211]) was “Beneficial” and the Beneficial effects [5] was “Beneficial”. For the same compound, the Beneficial effects (Alzheimer's Disease) was “Beneficial”, the “Hearing loss and cochlear damage from aminoglycoside antibiotics and cisplatin” value (cochlea; animal models [245-247]) was “greatly reduced” and the “permanent cochlear damage due to acute acoustic overexposure” value (cochlea; animal models, systemic administration [246,248]) was “almost completely prevented”. The “side effect reported for NAC treatment for inflammatory conditions” value (not found clinically significant [106]) was “mild to moderate anticoagulation”, the “adverse responses to intravenous NAC administration” value (several reports [163,249-256]) was “anaphylactoid and allergic responses” and the Beneficial effects (HIV infected individuals; CD4 counts > 200/ul, plasma cysteine, rate of CD4 decline, 800 mg/day po, n 45, 4 months, Akerlund 1996[47]) was “Beneficial”. For the same compound, the Beneficial effects (HIV infected individuals; beginning of antiretroviral therapy, hematocrit, CD4 cell count, 600 mg/day, n 20, 180 days, Spada 2002[227]) was “Beneficial”, the Beneficial effects (HIV infected individuals; immune function, 0.6-3.6 g depending on GSH levels po, n 69, 7 months, Breitkreutz 2000[50]) was “Beneficial” and the “adverse events, highest reported long-term NAC dosage” value (HIV infected individuals; in vivo) was “No adverse events requiring physician intervention”. For the same compound, the Beneficial effects (HIV infected individuals; whole blood GSH and T cell GSH, 3,200-8,000 mg/day po, n 81, 8 weeks, De Rosa 2000, Herzenberg 1997[48,49]) was “Beneficial”.
